Source: patent US9719127B2, “Dual inducible vectors and cell lines” (priority 2012, dated 2017)

How the values were obtained:
[1] = tested on: X4-tropic viruses; test: GGR cell G.Luc signal with X4-tropic viruses; format: cell-based, HIV; conditions: GGR cells, low endogenous CXCR4
[2] = tested on: CCR5-using HIV-1 isolate (live, replication-competent JR-CSF)

Maraviroc
G.Luc signal with X4-tropic viruses under maraviroc [1]: resistant to maraviroc inhibition
Gaussia luciferase signal of CCR5-mediated infection in the presence of maraviroc [2]: reproducibly reduced
